According to US10660928B2, “Pharmaceutical composition containing combination extracts of Moutan Root Bark, Angelica Dahurica Root, bupleurum root or fractions thereof for prevention and treatment of neurodegenerative disorder” (UNIVERSITY-INDUSTRY COOPERATION GROUP OF KYUNG HEE …, priority 2014, dated 2020):

Legend:
[1] = system: SH-SY5Y, the human neuroblastoma cell line; test: Cell survival rate (calcein) in normal cells, cytotoxicity; assay type: cell-based; conditions: 1 μg/ml
Method: Particularly, SH-SY5Y, the human neuroblastoma cell line, was inoculated in DMEM/F12 (Dulbeco's Modified Eagle's Medium & Ham's F12; Gibco, USA) supplemented with 10% FBS, followed by culture in a 37° C., 5% CO2/95% air (O2) incubator. Then, the cultured cells were transferred into a serum free medium at the density of 2.5×10^4 cells/well. […] The cells were collected and the cell survival rate was measured by using calcein. The survival rate of the cells that were increased or decreased compared with that of the normal control cells not-treated with the extract or its active component above and instead treated with DMSO was calculated and presented as percentage (%). Particularly, SH-SY5Y cells were cultured by the same manner as described in Experimental Example <1-1>. The cultured cells were transferred in a serum free medium at the density of 2.5×10^4 cells/well. […] The cells were collected and the cell survival rate was measured by using calcein. The cell survival rate that was increased or decreased compared with that of the normal control group not-treated with the extract or its active component above and instead treated with DMSO was calculated and presented as percentage (%).

[2] = system: SH-SY5Y, the human neuroblastoma cell line; test: MTT assay, atrazine-induced mitochondria complex 1 damage; assay type: cell-based; conditions: treatment 1 μg/ml, inducer atrazine 50 μg/ml
Method: Particularly, SH-SY5Y, the human neuroblastoma cell line, was inoculated in DMEM/F12 (1:1, Dulbeco's Modified Eagle's Medium & Ham's F12; Gibco, USA) supplemented with 10% FBS, followed by culture in a 37° C., 5% CO2/95% air (O2) incubator. Then, the cultured cells were transferred into a serum free medium at the density of 1×10^5 cells/well. […] Sigma, USA), followed by culture for 4 hours. Then, the MTT formazan precipitate formed by survived cells was dissolved in 100 μl of 0.04 N HCl/isopropanol. OD540 was measured with an ELISA microplate reader (Molecular Devices, USA). The damage of mitochondria complex 1 was confirmed to see how the damage level was either increased or decreased, compared with the normal control group treated with DMSO without the extract or its active component. In the meantime, the negative control group was treated with 50 μg/ml of atrazine alone to induce mitochondrial damage and was not treated with the extract or its active component. Then, MTT assay was performed by the same manner as described above.

SH-SY5Y cells = test: ATP assay, atrazine-induced loss of intracellular ATP; assay type: cell-based, human; conditions: treatment 1 μg/ml, inducer atrazine 50 μg/ml
Method: Particularly, SH-SY5Y cells were cultured by the same manner as described in Experimental Example <1-2>, to which 50 μg/ml of atrazine was treated to induce malfunction of mitochondria. Then, 100 μl of the cell lysate obtained from the cells with the malfunctioned mitochondria was mixed with 100 μl of luciferin-luciferase by using ATP bioluminescent somatic cell assay kit (Sigma, USA), followed by culture at 20° C. for 10 minutes. The supernatant was obtained. Fluorescence signal was measured by using LB 9501 Lumat luminometer (Berthold, Germany). The fluorescence of the control well containing the cell free medium was used as the background. The measured values were calculated by subtracting the background, and the amount of ATP was normalized to the protein concentration. The normal control was not treated with the extract of the invention or the active component thereof but instead treated with DMSO alone. All the results were presented as % by the normal control to present the intracellular ATP level. The negative control was treated with 50 μg/ml of atrazine alone to induce mitochondrial damage and not treated with the extract or the active component thereof. The Intracellular ATP level was measured by the same manner as described above.

[3] = system: cytochrome c oxidase subunit III (COX III); test: RT-PCR of COX III expression, atrazine-damaged cells; assay type: cell-based, human; conditions: 1 μg/ml
Method: (§1) Particularly, SH-SY5Y cells were cultured by the same manner as described in Experimental Example <1-2>, and mitochondrial malfunction was induced. Then, the cells with the malfunctioned mitochondria were suspended in TRIzol (Invitrogen, USA) and total RNA was extracted therefrom according to the manufacturer's protocol. […] PCR was performed with GeneAmp PCR system 9700 (Applied Biosystem, USA) under the required optimum condition by using the synthesized cDNA as a template in the presence of the forward and reverse primers listed in Table 5 below, leading to the amplification of COX III and Park? (DJ-1) genes. The amplified PCR products were electrophoresed on 1.5% agarose gel. The relative concentration was measured by using an image densitometer (Alpha Ease FC software; Alpha Innotech, USA) under UV. The level of mRNA was standardized by comparison with the level of 18S rRNA. The normal control was not treated with the extract of the invention or the active component thereof but instead treated with DMSO alone. The negative control was treated with 50 μg/ml of atrazine alone to induce mitochondrial damage and not treated with the extract or the active component thereof. The gene expression level was investigated by the same manner as described above.

Park7 (DJ-1) = test: RT-PCR of Park7 (DJ-1) expression, atrazine-damaged cells; assay type: cell-based, human; conditions: 1 μg/ml
Method: as §1

BV2 cells [4] = test: MTT assay, LPS-induced inflammatory response; assay type: cell-based, mouse; conditions: BV2, treatment 1.0 μg/ml, inducer LPS 100 ng/ml
Method: Particularly, BV2 cells were cultured by the same manner as described in Experimental Example <3-1>. Then, the cultured cells were transferred into a serum free medium at the density of 1×10^5 cells/well. The cells were treated with the Bupleurum Root 90% ethanol extract prepared in Example <1-3>, saikosaponin A, saikosaponin B2, saikosaponin B4, or saikosaponin D at the concentration of 1.0 μg/ml, followed by culture for 4 hours. The cells were then treated with 100 ng/ml of lipopolysaccharide (LPS), followed by culture for 20 hours to induce inflammatory response. MTT assay was performed with the cells induced with inflammatory response by the same manner as described in Experimental Example <1-2>. The damage of mitochondria complex 1 was confirmed to see how the damage level was either increased or decreased, compared with the normal control group treated with DMSO without the extract or its active component. In the meantime, the negative control group was treated with 100 ng/ml of LPS alone to induce inflammatory response and was not treated with the extract or its active component. Then, MTT assay was performed by the same manner as described above.

BV2 cells [5] = test: Griess method, nitric oxide in medium of LPS-induced cells; assay type: cell-based, mouse; conditions: BV2, treatment 1.0 μg/ml, inducer LPS 100 ng/ml
Method: Particularly, BV2 cells were cultured by the same manner as described in Experimental Example <3-1>, and inflammatory response was induced. Then, 100 μl of the cell culture medium was obtained, to which 100 μl of Griess reagent comprising hydrochloric acid containing 5% sulfanilamide and 2% naphthylethylenediamine was added, followed by reaction in a dark room for 30 minutes. Upon completion of the reaction, OD540 was measured with an EISA microplate reader (Versamax, USA). The concentration of nitric oxide in the medium was calculated using the standard calibration curve of sodium nitrite. The normal control was not treated with the extract or the active component thereof but treated with DMSO. The negative control was treated with 100 ng/ml of LPS alone to induce inflammatory response but not treated with the extract or the active component. Then, the nitric oxide concentration reduction effect was investigated by the same manner as described above.
(§2) Particularly, BV2 cells were cultured by the same manner as described in Experimental Example <3-1>, and inflammatory response was induced. Then, 100 μl of the cell culture medium was obtained, to which 100 μl of Griess reagent comprising hydrochloric acid containing 5% sulfanilamide and 2% naphthylethylenediamine was added, followed by reaction in a dark room for 30 minutes. Upon completion of the reaction, OD540 was measured with an EISA microplate reader (Versamax, USA). The concentration of nitric oxide in the medium was calculated using the standard calibration curve of sodium nitrite. To measure the ROS concentration, the cells were treated with 1 μM DCF-DA and 0.05 μM bisbenzimide (Hoechst 33342), followed by staining at 37° C. for 1 hour. After the staining, the fluorescence intensity of DCF-DA was measured at 485 nm/535 nm, and the fluorescence intensity of bisbenzimide was measured at 335 nm/460 nm. Based on the ratio of DCF-DA/bisbenzimide, ROS was quantified. The amount of ROS, either increased or decreased, was compared with that of the normal control not treated with the extract but treated with DMSO, and the results were presented as %. The negative control was treated with 100 ng/ml of LPS alone to induce inflammatory response but not treated with the extract or the active component thereof. Then, the nitric oxide concentration reduction effect and the ROS concentration reduction effect were investigated by the same manner as described above.

[6] = system: inducible nitric oxide synthase (iNOS); test: RT-PCR of iNOS mRNA, LPS-induced cells; assay type: cell-based, mouse; conditions: BV2, treatment 1.0 μg/ml, LPS 100 ng/ml; negative control 100.00
Method: (§3) Particularly, BV2 cells were cultured by the same manner as described in Experimental Example <3-1>, and inflammatory response was induced. Then, RT-PCR was performed with the cells by the same manner as described in Experimental Example <1-4>, followed by quantitative analysis of the expression levels of iNOS, IL-6, and NF-kB p65/ReIA genes. The normal control was not treated with the extract of the invention or the active component thereof but treated with DMSO alone. The negative control was not treated with the extract or the active component but treated with 100 ng/ml of LPS alone to induce inflammatory response. Then, the expression of the inflammatory response marker gene was confirmed by the same manner as described above.

interleukin-6, (IL-6) = test: RT-PCR of IL-6 mRNA, LPS-induced cells; assay type: cell-based, mouse; conditions: BV2, treatment 1.0 μg/ml, LPS 100 ng/ml; negative control 100.00
Method: as §3

NF-kB p65/ReIA = test: RT-PCR of NF-kB p65/ReIA mRNA, LPS-induced cells; assay type: cell-based, mouse; conditions: BV2, treatment 1.0 μg/ml, LPS 100 ng/ml; negative control 100.00
Method: as §3

BV2 cells [7] = test: DCF-DA intracellular ROS, LPS-induced cells; assay type: cell-based, mouse; conditions: BV2, treatment 1.0 μg/ml, inducer LPS 100 ng/ml
Method: Particularly, BV2 cells were cultured by the same manner as described in Experimental Example <3-1>, and inflammatory response was induced. Then, the cells induced with inflammatory response were treated with 1 μM DCF-DA and 0.05 μM bisbenzimide (Hoechst 33342), followed by staining at 37° C. for 1 hour. After the staining, the fluorescence intensity of DCF-DA was measured at 485 nm/535 nm, and the fluorescence intensity of bisbenzimide was measured at 335 nm/460 nm. Based on the ratio of DCF-DA/bisbenzimide, ROS was quantified. The amount of ROS, either increased or decreased, was compared with that of the normal control not treated with the extract or the active component thereof but treated with DMSO, and the results were presented as %. The negative control was treated with 100 ng/ml of LPS alone to induce inflammatory response but not treated with the extract or the active component thereof. Then, the generation of ROS was investigated by the same manner as described above.
as §2

[8] = normal SH-SY5Y cells, 4 hours, calcein

Structure (SMILES)	Cell survival rate (% of control) [1, 8]	MTT (% of control) [2]	Intracellular ATP content (% of control) (SH-SY5Y cells)	COX III/18S rRNA ([3]; with atrazine)	COX III/18S rRNA ([3]; without atrazine)	Park7(DJ-1)/18S rRNA (Park7 (DJ-1); with atrazine)	Park7(DJ-1)/18S rRNA (Park7 (DJ-1); without atrazine)	Cell survival rate (% of control) ([1]; human, 4 h)	MTT (% of control) (BV2 cells [4])	NO (BV2 cells [5]) [µM]	iNOS mRNA (% of control) [6]	IL-6 mRNA (% of control) (interleukin-6, (IL-6))	p65/ReIA mRNA (% of control) (NF-kB p65/ReIA)	DCF-DA-ROS (% of control) (BV2 cells [7])
COc1ccc(C(C)=O)c(O)c1 [Paeonol, 2′-Hydroxy-4′-methoxyacetophenone]	102.2 ± 9.10 % of control	101.8 ± 7.21 % of control	101.9 ± 7.42 % of control	1.07 ± 0.07	1.05 ± 0.03	0.95 ± 0.07	1.22 ± 0.08	–	–	–	–	–	–	–
C[C@@]12CC(=O)[C@H]3C[C@]1(O)O[C@H](O2)[C@@H]3COC(=O)c1ccccc1 [paeoniflorigenone, [(2s,3as,5s,7ar,8s)-3a-hydroxy-7a-methyl-6-oxohexahydro-2,5-methano-1,3-benzodioxol-8-yl]methyl benzoate]	–	95.5 ± 6.09 % of control	89.1 ± 7.97 % of control	0.86 ± 0.07	1.04 ± 0.05	0.45 ± 0.02	0.98 ± 0.08	98.9 ± 8.10 % of control	–	–	–	–	–	–
C[C@@]12C[C@@]3(O)O[C@@H](O1)[C@]1(COC(=O)c4ccccc4)[C@H]3C[C@@]12O[C@@H]1O[C@H](CO)[C@@H](O)[C@H](O)[C@H]1O [paeoniflorin]	97.9 ± 7.34 % of control	96.4 ± 7.44 % of control	94.3 ± 6.44 % of control	0.92 ± 0.08	1.11 ± 0.04	2.03 ± 0.07	1.05 ± 0.08	–	–	–	–	–	–	–
C[C@H]1O[C@@H](O[C@H]2CC[C@@]3(C)[C@@H](CC[C@]4(C)[C@@H]3C=C[C@]35OC[C@@]6(CCC(C)(C)C[C@H]63)[C@@H](O)C[C@]54C)[C@]2(C)CO)[C@H](O)[C@@H](O[C@@H]2O[C@H](CO)[C@@H](O)[C@H](O)[C@H]2O)[C@H]1O [saikosaponin A, (3beta,4alpha,16beta)-13,28-Epoxy-16,23-dihydroxyolean-11-en-3-yl-6-deoxy-3-O-beta-D-glucopyranosyl-beta-D-galactopyranoside]	–	–	–	–	–	–	–	–	91.49 ± 6.20 % of control	10.8 ± 3.6	14.85 ± 1.47 % of control	18.05 ± 1.23 % of control	40.38 ± 1.05 % of control	198.24 ± 3.72 % of control
